Legend:
Type in all cases: biochemical
[1] = target: T1, human recombinant p38α protein kinase (Homo sapiens, UniProt Q16539); assay: Cell-free p38α MAP kinase modulation assay (phosphorylation of myelin basic protein); conditions: for p38α AC50 / AC50: concentration to activate phosphorylation of myelin basic protein by 50%, ANO = activation not observed at any concentration tested; for p38α IC50 / IC50: concentration to inhibit phosphorylation of myelin basic protein by 50%, INO = inhibition not observed at any concentration tested; for p38α Max % Act: maximum observed increase in p38 MAP kinase activity in presence of compound; for effect on p38α MAP kinase activity, in words: text summary of Table I; for p38α concentration at which maximum increase in activity is observed: value in parentheses in Max % Act
T1 construct: purchased UBI 14-251; host or cells: E. coli
T1 sequence (Q16539 whole entry): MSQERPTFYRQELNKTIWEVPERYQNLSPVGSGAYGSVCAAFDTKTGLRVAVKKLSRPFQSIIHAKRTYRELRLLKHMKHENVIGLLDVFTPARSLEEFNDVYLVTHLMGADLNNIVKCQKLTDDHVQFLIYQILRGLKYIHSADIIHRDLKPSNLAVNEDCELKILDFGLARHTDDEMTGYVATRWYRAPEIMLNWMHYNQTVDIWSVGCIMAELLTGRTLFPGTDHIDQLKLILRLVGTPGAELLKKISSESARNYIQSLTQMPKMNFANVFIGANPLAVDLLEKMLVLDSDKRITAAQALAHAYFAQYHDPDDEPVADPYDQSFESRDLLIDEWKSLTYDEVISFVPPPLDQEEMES
Description: In vitro cell-free p38α MAP kinase modulation assays were conducted by the method as described in Clerk et al., supra, (1998). Briefly, human recombinant p38α protein kinase expressed in E. Coli (UBI #14-251) was used. Myelin basic protein (MBP, UBI #13-110) was employed as substrate, and microtiter plate wells were coated with MBP (0.01 mg/ml) overnight at 4° C. Candidate compound and/or vehicle was preincubated with 0.075 μg/mL enzyme in modified HEPES buffer pH 7.4 at 25° C. for 15 minutes. The reaction was initiated by addition of 100 μM ATP and allowed to proceed for another 60 minutes. The reaction was terminated by aspirating the solution. Phosphorylated MBP was detected by incubation with a mouse monoclonal IgG2a anti-phosphoMBP antibody. Bound anti-phosphoMBP antibody was quantitated by incubation with a HRP conjugated goat anti-mouse IgG.

[2] = target: T2, recombinant human p38γ MAP kinase (Homo sapiens, UniProt P53778); assay: Cell-free p38γ MAP kinase modulation assay (phosphorylation of myelin basic protein); conditions: for p38γ Max % Act: maximum observed increase in p38 MAP kinase activity in presence of compound; for effect on p38γ MAP kinase activity, in words: text summary of Table I; for p38γ concentration at which maximum increase in activity is observed: value in parentheses under Max % Act
T2 sequence (P53778 1-367): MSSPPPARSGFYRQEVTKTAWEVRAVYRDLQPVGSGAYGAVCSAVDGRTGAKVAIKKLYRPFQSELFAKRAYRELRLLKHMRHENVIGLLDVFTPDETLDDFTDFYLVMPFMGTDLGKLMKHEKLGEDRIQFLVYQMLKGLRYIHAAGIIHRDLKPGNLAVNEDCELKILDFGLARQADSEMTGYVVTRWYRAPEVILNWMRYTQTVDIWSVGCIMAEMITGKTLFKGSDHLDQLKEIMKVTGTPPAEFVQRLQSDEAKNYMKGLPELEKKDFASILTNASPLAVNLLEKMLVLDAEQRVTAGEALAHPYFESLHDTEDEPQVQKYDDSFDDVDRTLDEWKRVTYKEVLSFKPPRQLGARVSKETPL

[3] = target: recombinant human p38β MAP kinase (Homo sapiens, UniProt Q15759); assay: Cell-free p38β MAP kinase modulation assay (phosphorylation of myelin basic protein); conditions: for AC50: concentration to activate phosphorylation of myelin basic protein by 50%, ANO = activation not observed at any concentration tested; for p38β Max % Act: maximum observed increase in p38 MAP kinase activity in presence of compound; for effect on p38β MAP kinase activity, in words: text summary of Table I; for p38β concentration at which maximum increase in activity is observed: value in parentheses in Max % Act
Sequence of recombinant human p38β MAP kinase (Q15759 whole entry): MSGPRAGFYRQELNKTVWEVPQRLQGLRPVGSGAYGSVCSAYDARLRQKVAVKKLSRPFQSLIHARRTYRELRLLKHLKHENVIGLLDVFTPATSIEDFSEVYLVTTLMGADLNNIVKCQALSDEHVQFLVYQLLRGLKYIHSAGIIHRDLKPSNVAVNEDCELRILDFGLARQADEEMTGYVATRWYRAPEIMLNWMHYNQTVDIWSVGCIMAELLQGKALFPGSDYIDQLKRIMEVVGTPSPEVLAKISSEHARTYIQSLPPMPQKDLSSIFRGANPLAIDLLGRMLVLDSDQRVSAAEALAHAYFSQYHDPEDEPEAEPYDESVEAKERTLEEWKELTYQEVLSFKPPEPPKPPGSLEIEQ

[4] = target: T3, recombinant human p38δ MAP kinase (Homo sapiens, UniProt O15264); assay: Cell-free p38δ MAP kinase modulation assay (phosphorylation of myelin basic protein); conditions: for AC50: concentration to activate phosphorylation of myelin basic protein by 50%, ANO = activation not observed at any concentration tested; for p38δ Max % Act: maximum observed increase in p38 MAP kinase activity in presence of compound; for effect on p38δ MAP kinase activity, in words: text summary of Table I; for p38δ concentration at which maximum increase in activity is observed: value in parentheses under Max % Act
T3 sequence (O15264 1-365): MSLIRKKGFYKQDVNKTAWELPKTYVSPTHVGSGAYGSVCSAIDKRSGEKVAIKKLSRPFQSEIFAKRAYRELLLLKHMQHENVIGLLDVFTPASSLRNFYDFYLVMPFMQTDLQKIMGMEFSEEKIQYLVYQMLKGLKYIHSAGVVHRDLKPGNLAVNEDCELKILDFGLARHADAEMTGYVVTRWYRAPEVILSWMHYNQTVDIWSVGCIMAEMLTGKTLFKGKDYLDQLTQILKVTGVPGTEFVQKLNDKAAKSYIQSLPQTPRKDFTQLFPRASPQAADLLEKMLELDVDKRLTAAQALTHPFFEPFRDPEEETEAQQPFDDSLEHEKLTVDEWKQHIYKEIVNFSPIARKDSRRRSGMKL

[5] = concentration to activate phosphorylation of myelin basic protein by 50%, ANO = activation not observed at any concentration tested
[6] = concentration to inhibit phosphorylation of myelin basic protein by 50%, INO = inhibition not observed at any concentration tested

| SMILES | AC50 [2, 5] | p38γ IC50 [2, 6] | p38γ Max % Act [2] | effect on p38γ MAP kinase activity, in words [2] | p38γ concentration at which maximum increase in activity is observed [2] | p38β Max % Act [3] | p38β concentration at which maximum increase in activity is observed [3] | AC50 [4] | p38δ Max % Act [4] | effect on p38δ MAP kinase activity, in words [4] | p38δ concentration at which maximum increase in activity is observed [4] | p38α AC50 [1] | IC50 [1] | other results |
| --- | --- | --- | --- | --- | --- | --- | --- | --- | --- | --- | --- | --- | --- | --- |
| CC(C)c1nc(N(C)S(C)(=O)=O)nc(-c2ccc(F)cc2)c1/C=C/[C@@H](O)C[C@@H](O)CC(=O)O [Rosuvastatin sodium, reference compound] | – | – | – | – | – | – | – | – | – | – | – | ANO | – | – |
| CC(C)n1c(/C=C/C(O)CC(O)CC(=O)O)c(-c2ccc(F)cc2)c2ccccc21 (centres unmarked) [Fluvastatin sodium, fluvastatin sodium, reference compound] | – | – | – | – | – | – | – | – | – | – | – | ANO | – | – |
| O=C([O-])C[C@H](O)C[C@H](O)/C=C/c1c(C2CC2)nc2ccccc2c1-c1ccc(F)cc1.O=C([O-])C[C@H](O)C[C@H](O)/C=C/c1c(C2CC2)nc2ccccc2c1-c1ccc(F)cc1.[Ca+2] [Pitavastatin calcium, reference compound] | – | INO | – | – | – | – | – | – | – | – | – | ANO | 101 µM | p38γ AC50 [2, 5]: ANO |
| COCc1c(C(C)C)nc(C(C)C)c(C=CC(O)CC(O)CC(=O)[O-])c1-c1ccc(F)cc1.COCc1c(C(C)C)nc(C(C)C)c(C=CC(O)CC(O)CC(=O)[O-])c1-c1ccc(F)cc1.[Ca+2] (centres unmarked) [Cerivastatin calcium, reference compound] | – | – | – | – | – | – | – | – | – | – | – | ANO | > 30 µM | – |
| CC(C)c1c(C(=O)Nc2ccccc2)c(-c2ccccc2)c(-c2ccc(F)cc2)n1CC[C@@H]1C[C@@H](O)CC(=O)O1 [Atorvastatin lactone, atorvastatin lactone] | ~10 µM | – | 62% | showed both inhibitory and activation activities | (10 μM) | 19% | 10 µM | 30 to 100 µM | 112% | showed both inhibitory and activation activities | (30 μM) | ANO | 31 µM | IC50 [2, 6]: ~50 µM; IC50 [3, 6]: 94 µM; IC50 [4, 6]: 83 µM; p38δ Max % Act ([4]; listed as atorvastatin lacton): about 112% |
| CC(C)c1c(C(=O)Nc2ccccc2)c(-c2ccccc2)c(-c2ccc(F)cc2)n1CC[C@@H](O)C[C@@H](O)CC(=O)[O-].CC(C)c1c(C(=O)Nc2ccccc2)c(-c2ccccc2)c(-c2ccc(F)cc2)n1CC[C@@H](O)C[C@@H](O)CC(=O)[O-].[Ca+2] [Atorvastatin calcium, atorvastatin calcium, reference compound] | – | – | – | – | – | – | – | – | – | – | – | ANO^d | – | – |

Now from value to molecule, other results behind:

| AC50 [2, 5] | p38γ IC50 [2, 6] | p38γ Max % Act [2] | effect on p38γ MAP kinase activity, in words [2] | p38γ concentration at which maximum increase in activity is observed [2] | p38β Max % Act [3] | p38β concentration at which maximum increase in activity is observed [3] | AC50 [4] | p38δ Max % Act [4] | effect on p38δ MAP kinase activity, in words [4] | p38δ concentration at which maximum increase in activity is observed [4] | SMILES | p38α AC50 [1] | IC50 [1] | other results |
| --- | --- | --- | --- | --- | --- | --- | --- | --- | --- | --- | --- | --- | --- | --- |
| 3 to 10 µM | INO | 127% | can activate | (100 μM) | 185% | 100 µM | ~2 µM | 611% | can activate | (100 μM) | CCC(C)(C)C(=O)O[C@H]1C[C@@H](C)C=C2C=C[C@H](C)[C@H](CC[C@@H]3C[C@@H](O)CC(=O)O3)[C@H]21 [Simvastatin lactone, simvastatin lactone] | – | – | AC50 [3]: ~15 µM; p38β IC50 [3, 6]: INO; effect on p38β MAP kinase activity, in words [3]: can activate; p38δ IC50 [4, 6]: INO; AC50 [1]: ~20 µM; p38α IC50 [1]: INO^e; p38α Max % Act [1]: 207%; effect on p38α MAP kinase activity, in words [1]: can activate; p38α concentration at which maximum increase in activity is observed [1]: 100 µM |
| ~5 µM | INO | 115% | can activate | (100 μM) | 143% | 10 µM | ~8 µM | 158% | can activate | (100 μM) | COCc1c(C(C)C)nc(C(C)C)c(/C=C/[C@@H]2C[C@@H](O)CC(=O)O2)c1-c1ccc(F)cc1 [Cerivastatin lactone, cerivastatin lactone] | – | – | AC50 [3]: ~5 µM; p38β IC50 [3, 6]: INO; effect on p38β MAP kinase activity, in words [3]: can activate; p38δ IC50 [4, 6]: INO; AC50 [1]: ~10 µM; p38α IC50 [1]: INO; p38α Max % Act [1]: 76%; effect on p38α MAP kinase activity, in words [1]: can activate; p38α concentration at which maximum increase in activity is observed [1]: 100 µM |

Reference: patent US20060111436A1, “Compositions and treatments for modulating kinase and/or HMG-CoA reductase” (priority 2004, published 2006)
